Results reported in patent US8314088B2, “Pyrazinooxazepine derivatives” (Takeda Pharmaceutical Company Limited, priority 2009, dated 2012).

Columns and labels:
[1] = biological target: serotonin 5-HT2C receptor (Homo sapiens, UniProt P28335, I156V/I160V/N158S); assay type: cell-based
[2] = test system: female spinal cord-transected rats with bilaterally transected hypogastric nerve and pudendal nerve; experiment: organ prolapse: urethral closure response induced by increased intravesical pressure (Experimental Example 7a); assay type: in vivo, rat; parameters: unit not given here; conditions: 1 mg/kg, i.v.; evaluated 10 min after administration
Experimental: The effect of the compound of the present invention for organ prolapse was measured by examining the enhancement of urethral closure response by pelvic floor muscles (iliococcygeal muscle, pubococcygeal muscle etc.) induced by an increased intravesical pressure, by compound administration. The enhancing action of the compound on urethral closure response induced by an increased intravesical pressure was measured using female spinal cord-transected rats with bilaterally transected hypogastric nerve and pudendal nerve. SD female rats (body weight 246-298 g) were anesthetized with urethane, and the spinal cord was cut at T8-9 level to eliminate the micturition reflex. During the operation, isoflurane anesthesia was added as necessary. After abdominal section, bladder neck was ligated with a suture thread, and then the hypogastric nerve and pudendal nerve were bilaterally transected. […] The changes in the topical pressure within the urethra (hereinafter conveniently indicated as urethral pressure) as measured by the microtip transducer was transmitted to a computer via an amplifier and a data intake device, and recorded on a hard disc. […] The reaction of the urethra induced by an increased intravesical pressure was measured repeatedly until the value is stabilized, and the average of the last 2 measures was taken as the value before drug administration. […]

[3] = test system: SD female rats; experiment: stress urinary incontinence: leak point pressure before and after administration (Experimental Example 5a); assay type: in vivo, rat; conditions: i.v., spinal cord-transected SD female rats
Experimental: The effect of the compound of the present invention for stress urinary incontinence was measured by comparing the leak point pressure before and after the administration of the compound as shown below. SD female rats (body weight 200-270 g) were anesthetized with urethane (Wako Pure Chemical Industries, Ltd.), and the spinal cord was cut at T8-9 level to eliminate the micturition reflex. During the operation, isoflurane anesthesia was added as necessary. The rats were fixed at a dorsal position, and two catheters (PE-100; Clay Adams) were indwelled in the bladder. One of the catheters was filled with saline stained with Evans Blue dye (Merck), and connected to a 50 ml syringe (TERUMO CORPORATION) fixed on an infusion pump (KD Scientific) via a three-way cock. The other catheter was connected to a pressure transducer (DX-100; NIHON KOHDEN CORPORATION), and signals of the transducer were transmitted to computer via an amplifier (blood pressure amplification unit AP-641G; NIHON KOHDEN CORPORATION) and a data analyzer (BIOPAC; MP100), and recorded on a hard disk. The data was analyzed on the computer using a software (BIOPAC; AcqKnowledge). A DMA/PEG400 (1:1) solution was intravenously administered to the rats at 0.5 mL/kg. From 10 min later, saline was injected into the bladder using the infusion pump at a rate of 360 ml/hr, infusion was stopped on the moment fluid leakage from the urethral meatus was observed, and the solution in the bladder was discharged by opening the three-way cock. The maximum intravesical pressure during infusion was taken as a leak point pressure, which was measured repeatedly until the value was stabilized, and the average value of the last three measures was taken as the data. […] Williams test was used for statistical calculation.

[4] = test system: Male F344 rats; experiment: obesity: food consumption after single gavage dose (Experimental Example 6a); assay type: in vivo, rat; conditions: 0.5 mg/mL in 0.5% methylcellulose, 2 mL/kg by gavage; 24 hr after administration; obese F344 rats on high-fat diet
Experimental: Experimental Example 6a The effect of the compound of the present invention for obesity was measured using the food consumption calculated as follows as an index. Male F344 rats (CLEA Japan, Inc.) were purchased at 5 weeks of age, and raised by groups on a solid high-fat diet with fat content 45 kcal % (D12451, Research Diets). When sufficient obesity was observed (40 to 60-week-old), they were raised singly, and given a powder high-fat diet with lipid content 45 kcal % […], Research Diets) in a feeder. The rats were grouped using body weight and food consumption (18:00-8:00) one day before administration as indices. […] A 0.5% methylcellulose solution was administered to the control group. After administration, a previously-weighed feeder was placed in the breeding cage. The feeder was weighed 24 hr after the administration and the food consumption was calculated.

[5] = test system: male F344 rats (DIO-F344 rat); experiment: obesity: body weight and food consumption in high-fat diet-loaded rats, osmotic pump (Experimental Example 6b); assay type: in vivo; conditions: subcutaneous osmotic pump; for body weight loss (%): 14 days
Experimental: The effect of the compound of the present invention for obesity was measured using high-fat diet-loaded rats based on the effects on body weight and food consumption. 38 to 60-week-old male F344 rats (DIO-F344 rat) raised on a […] fat high-fat diet (D12451, Research Diets) from 7 weeks of age were used. They were grouped based on the body weight one day before operation. The compound of Example 8 was dissolved in saline, filled in an osmotic pump (Alzet osmotic pump 2mL2 type), and subcutaneously implanted under isoflurane anesthesia. The body weight was measured on completion of the operation, and measured again at 14 days postoperation. In addition, the amount of remaining food was measured, and food consumption for 14 days was measured. For statistical calculation, Williams test was used.

Sequence of serotonin 5-HT2C receptor (P28335 33-458 I156V/N158S/I160V limits assumed): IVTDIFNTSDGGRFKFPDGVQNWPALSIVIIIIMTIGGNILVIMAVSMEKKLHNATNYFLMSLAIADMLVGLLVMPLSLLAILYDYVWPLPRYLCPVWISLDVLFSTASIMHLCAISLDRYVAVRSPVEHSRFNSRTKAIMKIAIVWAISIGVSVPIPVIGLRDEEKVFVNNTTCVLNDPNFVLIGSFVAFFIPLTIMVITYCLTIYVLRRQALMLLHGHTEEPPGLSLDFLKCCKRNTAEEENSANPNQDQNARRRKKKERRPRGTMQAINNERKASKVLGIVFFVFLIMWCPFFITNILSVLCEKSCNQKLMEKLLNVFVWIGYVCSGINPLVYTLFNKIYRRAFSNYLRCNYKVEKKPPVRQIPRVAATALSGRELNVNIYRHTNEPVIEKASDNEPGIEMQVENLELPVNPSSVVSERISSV

Question: For `CC(C)Oc1cnc2c(n1)OCCNC2.Cl` [Example 2, 3-(1-methylethoxy)-6,7,8,9-tetrahydropyrazino[2,3-f][1,4]oxazepine hydrochloride], which “ratio (%) relative to maximum response by 5-HT (1 μM)” value [1] is on record?
Answer: The value was 93%.

Question: For `C[C@@H]1COCCN1c1cnc2c(n1)OCCNC2.Cl` [Example 5, 3-[(3R)-3-methylmorpholin-4-yl]-6,7,8,9-tetrahydropyrazino[2,3-f][1,4]oxazepine hydrochloride], which “ratio (%) relative to maximum response by 5-HT (1 μM)” value [1] is on record?
Answer: Its value is 95%.

Question: And the “urethral closure respons (ratio relative to value before administration)” value [2]?
Answer: The value was 227 ± 32.

Question: What about the “Change in leak point pressure (cmH2O)” value ([3]; 0.03 mg/kg) of the same compound?
Answer: Its value is 5.2 ± 1.7 cmH2O.

Question: And the “Change in leak point pressure (cmH2O)” value ([3]; 0.1 mg/kg)?
Answer: Its value is 9.1 ± 1.3 cmH2O.

Question: And the “Change in leak point pressure (cmH2O)” value ([3]; 0.3 mg/kg)?
Answer: Its value is 13.6 ± 2.4 cmH2O.

Question: What about the “Change in leak point pressure (cmH2O)” value ([3]; 1 mg/kg) of the same compound?
Answer: Its value is 19.6 ± 1.9 cmH2O.

Question: And the “suppression of food consumption as compared to the control group” value [4]?
Answer: The value was 21.8%.

Question: How did the “ratio (%) relative to maximum response by 5-HT (1 μM)” value [1] turn out when `C[C@H]1CNCc2ncc(N3CCOCC3)nc2O1` [Example 6, (6S)-6-methyl-3-(morpholin-4-yl)-6,7,8,9-tetrahydropyrazino[2,3-f][1,4]oxazepine] was run?
Answer: Its value is 102%.

Question: Which “ratio (%) relative to maximum response by 5-HT (1 μM)” value [1] does the source give for `C[C@@H]1COCCN1c1cnc2c(n1)O[C@@H](C)CNC2.Cl` [Example 7, (6S)-6-methyl-3-[(3R)-3-methylmorpholin-4-yl]-6,7,8,9-tetrahydropyrazino[2,3-f][1,4]oxazepine hydrochloride] here?
Answer: Its value is 108%.

Question: How did the “ratio (%) relative to maximum response by 5-HT (1 μM)” value [1] turn out when `CC(C)N(C)c1cnc2c(n1)OCCNC2.Cl` [Example 8, N-methyl-N-(1-methylethyl)-6,7,8,9-tetrahydropyrazino[2,3-f][1,4]oxazepin-3-amine hydrochloride] was run?
Answer: The value was 95%.

Question: And the “urethral closure respons (ratio relative to value before administration)” value [2]?
Answer: The value was 192 ± 13.

Question: What about the “Change in leak point pressure (cmH2O)” value ([3]; 0.1 mg/kg) of the same compound?
Answer: The value was 5.4 ± 1.6 cmH2O.

Question: And the “Change in leak point pressure (cmH2O)” value ([3]; 0.3 mg/kg)?
Answer: Its value is 10.8 ± 3.3 cmH2O.

Question: And the “Change in leak point pressure (cmH2O)” value ([3]; 1 mg/kg)?
Answer: Its value is 17.3 ± 3.4 cmH2O.

Question: And the “Change in leak point pressure (cmH2O)” value ([3]; 3 mg/kg)?
Answer: The value was 23.6 ± 3.3 cmH2O.

Question: And the “food consumption/14 days” value ([5]; 3 mg/kg/day)?
Answer: Its value is 150 ± 7 g.

Question: What about the “body weight loss (%)” value ([5]; 3 mg/kg/day) of the same compound?
Answer: Its value is 4.8 ± 0.5%.

Question: What about the “food consumption/14 days” value ([5]; 10 mg/kg/day) of the same compound?
Answer: The value was 140 ± 6 g.

Question: What about the “body weight loss (%)” value ([5]; 10 mg/kg/day) of the same compound?
Answer: The value was 4.9 ± 0.3%.

Question: What about the “food consumption/14 days” value ([5]; 30 mg/kg/day) of the same compound?
Answer: The value was 110 ± 2 g.

Question: And the “body weight loss (%)” value ([5]; 30 mg/kg/day)?
Answer: Its value is 7.5 ± 0.3 %.

Question: Which “ratio (%) relative to maximum response by 5-HT (1 μM)” value [1] does the source give for `CC[C@@H]1COCCN1c1cnc2c(n1)OCCNC2.Cl` [Example 9, 3-[(3R)-3-ethylmorpholin-4-yl]-6,7,8,9-tetrahydropyrazino[2,3-f][1,4]oxazepine hydrochloride] here?
Answer: Its value is 103%.

Question: With `Cl.c1nc2c(nc1C1CC1)OCCNC2` [Example 10, 3-cyclopropyl-6,7,8,9-tetrahydropyrazino[2,3-f][1,4]oxazepine hydrochloride] as the compound, how does the “ratio (%) relative to maximum response by 5-HT (1 μM)” value [1] read?
Answer: Its value is 89%.
